From patent publication US7097988B1 (ADVANCED RESEARCH AND TECHNOLOGY INSTITUTE, dated 2006)

Key:
[1] = target: T1, rat μ opioid receptor (inhibition of adenylyl cyclase) (Rattus norvegicus, UniProt P33535, V245I)
[2] = target: T1, rat μ opioid receptor (inhibition of adenylyl cyclase); assay: Cyclic AMP assay in transfected CHO cells, naive or chronically morphine-treated; conditions: for DAMGO/control (forskolin + DAMGO vs forskolin only cAMP): 1 μM DAMGO, 2 μM forskolin; for Intracellular cAMP level, Forskolin + DAMGO: forskolin 2 μM, DAMGO 1 μM
[3] = target: T2, μ-opioid receptor encoded by MOR-1 (inhibition of adenylyl cyclase) (Rattus norvegicus, UniProt P33535, V245I); assay: Forskolin-stimulated cAMP levels in COS-7 cells expressing MOR-1; assay type: cell-based; conditions: 100 nM DAGO, 10 μM forskolin, transfected cells, p<0.05
T2 construct: A 1.4-kilobase HindIII fragment encompassing the open reading frame from the cDNA encoding MOR-1 was cloned; expressed in transfected cells; host or cells: COS-7

[4] = target: T3, novel member of the opioid receptor gene family (SEQ ID NO: 17) (Rattus norvegicus, UniProt P35370); assay type: cell-based
T3 construct: mRNA of this clone was synthesized by in vitro transcription and coinjected into Xenopus oocytes; expressed in transfected cells; host or cells: Xenopus oocytes (mRNA injection)

[5] = target: T4, mu opioid receptor / voltage-activated calcium channel (Rattus norvegicus, UniProt P33535, V245I); assay: Barium currents in Xenopus oocytes coexpressing voltage-activated calcium channel and mu opioid receptor; assay type: cell-based; conditions: 1 μM DAMGO for 5 min, entire activation voltage range
T4 construct: one cDNA clone contained an open reading frame of 1194 bp, encoding a protein of 398 amino acids; expressed in transfected cells; host or cells: Xenopus oocytes (plasmid microinjection)

[6] = target: T5, human μ opioid receptor coupled to G protein-activated K+ channel (Homo sapiens, UniProt P35372); assay type: cell-based
T5 construct: Messenger RNAs encoding both proteins (Chen and Yu, 1994) were generated by in vitro transcription and injected into Xenopus oocytes; expressed in transfected cells; host or cells: Xenopus laevis oocytes (mRNA injection)

[7] = target: T6, rat μ opioid receptor coupled to G protein-activated K+ channel (Rattus norvegicus, UniProt P33535, V245I); assay type: cell-based
T6 construct: A cDNA clone, MOR-1, containing the protein coding region of a rat μ opioid receptor has been described; expressed in transfected cells; host or cells: Xenopus oocytes (mRNA injection)

cloned human μ receptor = cloned human μ receptor (Homo sapiens, UniProt P35372); assay: Saturation binding of [3H]DAMGO, COS-7 membranes expressing cloned human μ receptor (Example XII); set-up: the cDNA containing the open reading frame of the receptor was cloned downstream of the human cytomegalovirus promoter in the mammalian expression vector pcDNA3; expressed in transfected cells; host or cells: COS-7 (transient)
human μ opioid receptor = human μ opioid receptor (Homo sapiens, UniProt P35372)
cloned rat μ receptor = cloned rat μ receptor (Rattus norvegicus, UniProt P33535, V245I); conditions: previously reported; cited from earlier work
mu opioid receptor = target: T7, mu opioid receptor (Rattus norvegicus, UniProt P33535, V245I); assay type: biochemical; conditions: 10 μM DAMGO
T7 construct: expressed in transfected cells

rat μ opioid receptor = target: T8, rat μ opioid receptor (Rattus norvegicus, UniProt P33535, V245I); assay: Saturation binding of [3H]DAMGO, membranes of CHO cells stably expressing rat μ opioid receptor (Example VII)
T8 construct: A plasmid containing a 1.4 kb cDNA for the rat μ opioid receptor in a mammalian expression vector pRc/CMV has been described; expressed in transfected cells

[8] = cells treated with 1 μM morphine for 24 hours

T1 sequence (P33535 whole entry V245I): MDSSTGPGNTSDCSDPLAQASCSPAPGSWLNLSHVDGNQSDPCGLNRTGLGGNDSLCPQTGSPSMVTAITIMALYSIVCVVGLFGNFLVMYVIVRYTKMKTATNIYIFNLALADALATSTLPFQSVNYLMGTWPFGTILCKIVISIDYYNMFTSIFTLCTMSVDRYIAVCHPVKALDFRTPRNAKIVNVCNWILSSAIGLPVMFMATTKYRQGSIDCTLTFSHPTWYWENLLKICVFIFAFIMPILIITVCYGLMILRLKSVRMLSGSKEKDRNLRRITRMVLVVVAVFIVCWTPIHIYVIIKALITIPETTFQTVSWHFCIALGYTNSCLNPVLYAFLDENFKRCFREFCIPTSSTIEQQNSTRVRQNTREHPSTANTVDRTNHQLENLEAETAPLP
T5 sequence (P35372 whole entry): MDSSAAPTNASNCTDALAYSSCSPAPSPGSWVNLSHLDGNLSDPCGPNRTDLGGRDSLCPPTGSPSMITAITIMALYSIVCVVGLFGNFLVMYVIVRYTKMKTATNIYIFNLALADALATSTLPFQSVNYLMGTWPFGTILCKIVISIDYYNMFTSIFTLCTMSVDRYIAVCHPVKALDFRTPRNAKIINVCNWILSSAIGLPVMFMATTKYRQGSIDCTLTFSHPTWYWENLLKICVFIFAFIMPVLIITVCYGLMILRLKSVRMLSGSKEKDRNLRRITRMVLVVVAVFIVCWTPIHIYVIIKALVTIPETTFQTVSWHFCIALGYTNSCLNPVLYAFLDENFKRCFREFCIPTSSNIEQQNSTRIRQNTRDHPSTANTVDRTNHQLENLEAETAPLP
Chain of human μ opioid receptor (P35372 whole entry): as above
Chain of cloned human μ receptor (P35372 whole entry): as above
T3 sequence (P35370 whole entry): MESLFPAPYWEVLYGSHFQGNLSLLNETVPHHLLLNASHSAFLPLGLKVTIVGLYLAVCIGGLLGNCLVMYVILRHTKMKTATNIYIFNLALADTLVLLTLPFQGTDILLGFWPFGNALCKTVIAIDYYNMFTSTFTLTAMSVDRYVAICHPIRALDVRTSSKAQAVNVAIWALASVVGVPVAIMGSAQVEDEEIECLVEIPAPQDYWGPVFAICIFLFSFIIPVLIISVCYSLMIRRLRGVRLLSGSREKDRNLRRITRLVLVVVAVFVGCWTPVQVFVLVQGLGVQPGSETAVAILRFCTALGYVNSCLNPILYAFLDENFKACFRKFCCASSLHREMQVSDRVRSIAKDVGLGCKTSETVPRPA
T6 sequence (P33535 whole entry V245I): as the sequence (P33535 whole entry V245I) above
T8 sequence (P33535 whole entry V245I): as above
Chain of cloned rat μ receptor (P33535 whole entry V245I): as above
T4 sequence (P33535 whole entry V245I): as above
T2 sequence (P33535 whole entry V245I, the tested form may be a part): as the sequence (P33535 whole entry V245I) above
T7 sequence (P33535 whole entry V245I): as above

Compound: C[C@@H](NC(=O)[C@@H](N)Cc1ccc(O)cc1)C(=O)NCC(=O)N(C)[C@@H](Cc1ccccc1)C(=O)NCCO [DAMGO, [D-Ala^2, N-Me-Phe^4, Gly-ol^5]-enkephalin]
- inhibition [1]: ~60%
- effect on intracellular cAMP level in non-transfected parental CHO cells [2]: had no effect
- DAMGO/control (forskolin + DAMGO vs forskolin only cAMP) [2, 8]: 42.4%
- Intracellular cAMP level, Forskolin + DAMGO [2, 8]: 38.9 ± 1.4 fmol/1 × 10^3 cells
- DAMGO/control (forskolin + DAMGO vs forskolin only cAMP) ([2]; naive cells): 71.9%
- Intracellular cAMP level, Forskolin + DAMGO ([2]; naive cells): 25.6 ± 0.3 fmol/1 × 10^3 cells
- reduction of cAMP levels from control [3]: 18.1±2.5%
- induction of potassium conductance (in words) [4]: no potassium conductance was induced
- reduction in barium currents through the calcium channel [5]: over 80%
- membrane current upon receptor activation (in words) [6]: an inward current was observed
- membrane current upon DAMGO exposure (in words) [7]: produced an inward membrane current
- Bmax (cloned human μ receptor): 232 fmol/mg
- Bmax (human μ opioid receptor): 381±25 fmol/mg of membrane protein
- Bmax (cloned rat μ receptor): 444 fmol/mg protein
- increase of GTPase activity (mu opioid receptor): 30%
- Bmax (rat μ opioid receptor): ~630 fmol/mg membrane protein
